# Key:
# Aurora-2 = target: T1, Aurora-2 (Homo sapiens, UniProt O14965); assay: Ki determination for the inhibition of Aurora-2 (coupled enzyme assay); type: biochemical; details: 70 nM Aurora-2, peptide LRRASLG, 30° C
# T1 sequence (O14965 1-403): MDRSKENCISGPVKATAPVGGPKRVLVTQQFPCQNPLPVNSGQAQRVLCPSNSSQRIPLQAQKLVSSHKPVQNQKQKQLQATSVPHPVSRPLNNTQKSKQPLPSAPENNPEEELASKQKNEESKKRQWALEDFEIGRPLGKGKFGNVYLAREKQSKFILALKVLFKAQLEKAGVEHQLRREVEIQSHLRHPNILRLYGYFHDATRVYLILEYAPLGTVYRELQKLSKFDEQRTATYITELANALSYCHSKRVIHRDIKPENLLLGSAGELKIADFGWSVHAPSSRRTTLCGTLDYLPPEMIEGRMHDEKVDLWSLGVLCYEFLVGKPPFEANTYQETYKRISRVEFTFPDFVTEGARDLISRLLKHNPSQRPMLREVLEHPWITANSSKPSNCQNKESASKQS
# Method: Compounds were screened in the following manner for their ability to inhibit Aurora-2 using a standard coupled enzyme assay (Fox et al (1998) Protein Sci 7, 2249).
# To an assay stock buffer solution containing 0.1M HEPES 7.5, 10 mM MgCl2, 1 mM DTT, 25 mM NaCl, 2.5 mM phosphoenolpyruvate, […], 30 mg/ml pyruvate kinase, 10 mg/ml lactate dehydrogenase, […], and 800 μM peptide (LRRASLG, American Peptide, Sunnyvale, Calif.) was added a DMSO solution of a compound of the present invention to a final concentration of 30 μM. The resulting mixture was incubated at 30° C. for 10 min. The reaction was initiated by the addition of 10 μL of Aurora-2 stock solution to give a final concentration of 70 nM in the assay. The rates of reaction were obtained by monitoring absorbance at 340 nm over a 5 minute read time at 30° C. using a BioRad Ultramark plate reader (Hercules, Calif.). The Ki values were determined from the rate data as a function of inhibitor concentration.
# GSK-3β (AA 1-420) = target: T2, GSK-3β (AA 1-420) (Homo sapiens, UniProt P49841); assay: Ki determination for the inhibition of GSK-3 (coupled enzyme system); type: biochemical; details: 20 μM ATP, 300 μM peptide, 20 nM GSK-3β, 30° C
# T2 construct: GSK-3β (AA 1-420)
# T2 sequence (P49841 whole entry, the tested form may be a part): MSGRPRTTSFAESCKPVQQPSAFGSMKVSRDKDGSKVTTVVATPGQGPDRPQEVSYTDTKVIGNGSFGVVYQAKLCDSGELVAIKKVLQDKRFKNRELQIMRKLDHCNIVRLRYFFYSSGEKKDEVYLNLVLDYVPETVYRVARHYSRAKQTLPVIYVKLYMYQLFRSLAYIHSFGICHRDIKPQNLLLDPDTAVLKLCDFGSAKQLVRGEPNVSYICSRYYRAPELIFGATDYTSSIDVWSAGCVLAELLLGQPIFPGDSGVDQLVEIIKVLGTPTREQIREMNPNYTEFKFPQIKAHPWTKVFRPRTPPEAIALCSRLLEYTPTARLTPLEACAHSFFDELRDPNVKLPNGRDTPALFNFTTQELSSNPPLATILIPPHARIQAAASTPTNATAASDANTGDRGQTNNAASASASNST
# Outline: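 Ki values come from reaction rates over 10 min at 30 °C as a function of inhibitor concentration (12-point titration, 0.002–30 μM, 10 min preincubation). GSK-3β (AA 1-420, 20 nM) phosphorylated 300 μM primed peptide with 20 μM ATP; ADP formation followed by coupled NADH oxidation, pH 7.5.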
Structure (SMILES),melting point,Ki (Aurora-2) [nM],Ki (GSK-3β (AA 1-420)) [nM]
"Cc1cc(Nc2cc(-c3ccccc3)nc3ccccc23)n[nH]1 [Compound V-4, (5-Methyl-2H-pyrazol-3-yl)-(2-phenyl-quinolin-4-yl)-amine]",242 to 244 °C,100 to 1000,1000 to 20000
"Cc1cc(Nc2n[nH]c3ccccc23)nc(-c2ccccc2C(F)(F)F)n1 [II-19, (1H-Indazol-3-yl)-[6-methyl-2-(2-trifluoromethyl-phenyl)-pyrimidin-4-yl]-amine]",235 to 237 °C,1000 to 20000,< 100
"Cc1nc(-c2ccccc2C(F)(F)F)nc(Nc2n[nH]c3ccccc23)c1C [II-24, [5,6-Dimethyl-2-(2-trifluoromethyl-phenyl)-pyrimidin-4-yl]-(1H-indazol-3-yl)-amine]",183 to 186 °C,,< 100
"Cc1nc(-c2ccccc2C(F)(F)F)nc(Nc2n[nH]c3ccc(F)cc23)c1C [II-25, [5,6-Dimethyl-2-(2-trifluoromethyl-phenyl)-pyrimidin-4-yl]-(5-fluoro-1H-indazol-3-yl)-amine]",160 to 163 °C,,< 100
"Nc1ccc2[nH]nc(Nc3nc(-c4ccccc4C(F)(F)F)nc4ccccc34)c2c1 [II-73, (5-Amino-1H-indazol-3-yl)-[2-(2-trifluoromethyl-phenyl)-quinazolin-4-yl]-amine]",221 to 223 °C,,< 100
"Cc1cc(Nc2nc(-c3cc(Cl)cc(Cl)c3)nc3ccccc23)[nH]n1 [III-36, [2-(3,5-Dichlorophenyl)-quinazolin-4-yl]-(5-methyl-2H-pyrazol-3-yl)-amine]",228 °C,,
"Cc1cc(Nc2nc(-c3ccc(C(C)(C)C)cc3)nc3ccccc23)[nH]n1 [III-41, [2-(4-tert-Butylphenyl)-quinazolin-4-yl]-(5-methyl-2H-pyrazol-3-yl)-amine]",> 300 °C,< 100,100 to 1000
"Cc1cc(Nc2nc(-c3cccc(Oc4ccccc4)c3)nc3ccccc23)[nH]n1 [III-60, (5-Methyl-2H-pyrazol-3-yl)-[2-(3-phenoxyphenyl)-quinazolin-4-yl]-amine]",231 to 232 °C,< 100,< 100
"c1ccc(Oc2cccc(-c3nc(Nc4cc(C5CC5)n[nH]4)c4ccccc4n3)c2)cc1 [III-61, (5-Cyclopropyl-2H-pyrazol-3-yl)-[2-(3-phenoxyphenyl)-quinazolin-4-yl]-amine]",193 to 195 °C,< 100,< 100
"c1ccc2c(Nc3ccn[nH]3)nc(-c3ccncc3)nc2c1 [III-64, (2H-Pyrazol-3-yl)-(2-pyridin-4-yl-quinazolin-4-yl)-amine]",285 to 286 °C,100 to 1000,100 to 1000
"CC(C)c1cc(Nc2nc(-c3ccccc3)nc3ccccc23)[nH]n1 [III-67, (5-Isopropyl-2H-pyrazol-3-yl)-(2-phenyl-quinazolin-4-yl)-amine]",218 to 219 °C,< 100,< 100
"CC(C)(C)c1cc(Nc2nc(-c3ccccc3)nc3ccccc23)[nH]n1 [III-68, (5-tert-Butyl-2H-pyrazol-3-yl)-(2-phenyl-quinazolin-4-yl)-amine]",136 to 137 °C,1000 to 20000,1000 to 20000
"CC(C)(C)c1cc(Nc2nc(-c3ccncc3)nc3ccccc23)[nH]n1 [III-69, (5-tert-Butyl-2H-pyrazol-3-yl)-(2-pyridin-4-yl-quinazolin-4-yl)-amine]",> 300 °C,,
"c1ccc(-c2cc(Nc3nc(-c4ccccc4)nc4ccccc34)[nH]n2)cc1 [III-71, (5-Phenyl-2H-pyrazol-3-yl)-(2-phenyl-quinazolin-4-yl)-amine]",207 to 209 °C,100 to 1000,100 to 1000
"O=C(O)c1cc(Nc2nc(-c3ccccc3)nc3ccccc23)[nH]n1 [III-72, (5-Carboxy-2H-pyrazol-3-yl)-(2-phenyl-quinazolin-4-yl)-amine]",289 to 291 °C (dec.),,
"COC(=O)c1cc(Nc2nc(-c3ccccc3)nc3ccccc23)[nH]n1 [III-73, (5-Methoxycarbonyl-2H-pyrazol-3-yl)-(2-phenyl-quinazolin-4-yl)-amine]",271 to 273 °C,100 to 1000,< 100
"OCc1cc(Nc2nc(-c3ccccc3)nc3ccccc23)[nH]n1 [III-74, (5-Hydroxymethyl-2H-pyrazol-3-yl)-(2-phenyl-quinazolin-4-yl)-amine]",238 to 239 °C,100 to 1000,100 to 1000

Structure (SMILES),melting point,Ki (Aurora-2) [nM],Ki (GSK-3β (AA 1-420)) [nM]
"COCc1cc(Nc2nc(-c3ccccc3)nc3ccccc23)[nH]n1 [III-75, (5-Methoxymethyl-2H-pyrazol-3-yl)-(2-phenyl-quinazolin-4-yl)-amine]",190 to 191 °C,100 to 1000,< 100
"COCCCc1cc(Nc2nc(-c3ccccc3)nc3ccccc23)[nH]n1 [III-77, [-(3-Methoxyprop-1-yl)-2H-pyrazol-3-yl]-(2-phenyl-quinazolin-4-yl)-amine]",169 to 170 °C,< 100,< 100
"CC(C)(C)OC(=O)NCCCc1cc(Nc2nc(-c3ccccc3)nc3ccccc23)[nH]n1 [III-80, [5-(3-tert-Butoxycarbonylaminoprop-1-yl)-2H-pyrazol-3-yl]-(2-phenyl-quinazolin-4-yl)-amine]",199 to 200 °C,< 100,
"Brc1cn[nH]c1Nc1nc(-c2ccccc2)nc2ccccc12 [III-101, (4-Bromo-2H-pyrazol-3-yl)-(2-phenyl-quinazolin-4-yl)-amine]",189 °C,1000 to 20000,1000 to 20000
"Cc1n[nH]c(Nc2nc(-c3ccccc3)nc3ccccc23)c1Br [III-102, (4-Bromo-5-methyl-2H-pyrazol-3-yl)-(2-phenyl-quinazolin-4-yl)-amine]",183 to 185 °C,100 to 1000,100 to 1000
"Cc1cc(Nc2nc(N3CCOCC3)nc3ccccc23)[nH]n1 [III-104, (5-Methyl-2H-pyrazol-3-yl)-(2-morpholin-4-yl-quinazolin-4-yl)-amine]",223 to 224 °C,,
Cc1cc(Nc2nc(N3CCC(N4CCCC4)CC3)nc3ccccc23)[nH]n1 [III-113],191 °C,100 to 1000,
"Cc1cc(Nc2ccnc(-c3ccccc3)n2)n[nH]1 [IV-1, (5-Methyl-2H-pyrazol-3-yl)-(2-phenyl-pyrimidin-4-yl)-amine]",245 to 246 °C,,
"CC(=O)Nc1ccc(Sc2cc(Nc3cc(C)[nH]n3)nc(-c3ccccc3)n2)cc1 [IV-3, [6-(4-Acetamidophenylsulfanyl)-2-phenyl-pyrimidin-4-yl]-(5-methyl-2H-pyrazol-3-yl)-amine]",235 to 236 °C,,
"Cc1cc(Nc2ccnc(N3CCC(C)CC3)n2)n[nH]1 [IV-4, [2-(4-Methylpiperidin-1-yl)-pyrimidin-4-yl]-(5-methyl-2H-pyrazol-3-yl)-amine]",215 to 216 °C,,
"Cc1cc(Nc2nc(N3CCC(C)CC3)ncc2[N+](=O)[O-])[nH]n1 [IV-5, [2-(4-Methylpiperidin-1-yl)-5-nitropyrimidin-4-yl]-(5-methyl-2H-pyrazol-3-yl)-amine]",185 to 187 °C,,
"Cc1cc(Nc2nc(N3CCC(C)CC3)nc(C)c2N)n[nH]1 [IV-7, [5-Amino-6-methyl-2-(4-methylpiperidin-1-yl)-pyrimidin-4-yl]-(5-methyl-2H-pyrazol-3-yl)-amine]",172 to 175 °C,,
"Cc1cc(Nc2nc(-c3ccccc3)nc3cnccc23)n[nH]1 [IV-30, (5-Methyl-2H-pyrazol-3-yl)-(2-phenyl-pyrido[3,4-d]pyrimidin-4-yl)-amine]",225 °C,,
"Cc1cc(Nc2nc(-c3ccccc3)nc3ncccc23)n[nH]1 [IV-31, (5-Methyl-2H-pyrazol-3-yl)-(2-phenyl-pyrido[2,3-d]pyrimidin-4-yl)-amine]",234 °C,,
"c1ccc(-c2nc(Nc3cc(C4CC4)[nH]n3)c3ccncc3n2)cc1 [IV-32, (5-Cyclopropyl-2H-pyrazol-3-yl)-(2-phenyl-pyrido[3,4-d]pyrimidin-4-yl)-amine]",232 to 233 °C,,
"FC(F)(F)c1ccccc1-c1cc(Nc2nc[nH]n2)c2ccccc2n1 [IX-177, (1H-[1,2,4]triazol-3-yl)-[2-(2-trifluoromethyl-phenyl)-quinolin-4-yl]-amine]",,1000 to 20000,100 to 1000

# Reference: patent US6610677B2, “Pyrazole compounds useful as protein kinase inhibitors” (Vertex Pharmaceuticals Incorporated, priority 2000, dated 2003)
